{
  "source": "patent US20250017948A1",
  "about": "“CANNABINOID COMPOSITIONS FOR GASTROESOPHAGEAL DISORDERS” (THE UNITED STATES GOVERNMENT AS REPRESENTED BY THE …, priority 2021, published 2025)",
  "format_in_all_cases": "cell-based, human",
  "key": {"HET1a": {"test_system": "HET1a", "details": "for effect on DCA-induced mitochondrial membrane depolarization: treated prior to and during DCA exposure, FIG. 1C-1D, combination at 1:5", "procedure": "MitoProbe JC-1 Assay Kit for Flow Cytometry (cat #M34152, ThermoFisher, Massachusetts, USA) was used to measure the mitochondrial membrane potential. Depending on the experimental group, cells were pre-treated with the CBG/Phytol admixture or DMSO and incubated for 2 hours at 37° C. in a CO2 incubator. Cells were then treated with DCA with the CBG/Phytol admixture or DMSO. After treatment, cell were loaded with 2 μM of JC-1 and incubated for 15 minutes at 37° C. Cytoplasmic JC-1 monomers were detected in the green spectrum (˜529 nm) while mitochondrial J-aggregates were detected in the red spectrum (˜590 nm). Results are representative of 2 and 3 independent repeats per cell line.\nThese concentrations of DCA are found in esophageal aspirates of patients with GERD.\nVarious ratios of the combination of CBG and phytol were explored to assess DCA-induced mitochondrial membrane depolarization."}, "HET1A cells [1]": {"test_system": "HET1A cells", "assay": "Muse Multi-Color DNA Damage kit (ATM and H2AX activation)", "details": "preliminary screen, FIG. 1B; cannabinoid:terpene 1:5, with DCA", "procedure": "The activation of ATM and H2AX (a marker of DNA breaks) was measured using the Muse Multi-Color DNA Damage kit (MilliporeSigma, Burlington, MA, USA) according to the manufacturer's instructions. The percentage of ATM activated cells and H2AX activated cells was determined as dual activation by monitoring expression of both the ATM and γ-H2AX, using the Muse Cell Analyzer (MilliporeSigma, Burlington, MA, USA). Expression of γ-H2AX was determined by flow cytometry on an Accuri C6 flow cytometer following manufacturer protocol (MilliporeSigma, Burlington, MA, USA).\nCombinations of terpenes and cannabinoids were introduced to assess the effect on DNA damage using the Muse Multicolor DNA Damage Kit (see methods for details). Based on a preliminary screen shown in FIG. 1B, it was concluded that DCA induced the highest proportion of DNA damage, along with the addition of […] (THC) containing groups, >5% vs. an untreated group."}, "HET1A cells [2]": {"test_system": "HET1A cells", "assay": "Cell viability via XTT assay", "details": "DCA for 24 hours, then fresh media; FIG. 4A", "procedure": "Cells were cultured prior to exposure to the indicated test articles. After treatment, as indicated, cells were washed and resuspended in a phenol red-free RPMI or DMEM and subsequently treated with the XTT assay (ThermoFisher, Waltham, MA, USA) or the MTS assay (Promega, Madison, WI, USA) following manufacturer protocols.\nIn this example, the role of CBG and Phytol on hallmarks of apoptosis resistance is described. […] Cells were pretreated with or without CBG/Phytol and then treated with DCA or a vehicle control for 24 hours. On the following day, the cells were incubated with fresh media, without DCA, and with or without CBG and/or Phytol. Cell viability was determined via XTT assay."}, "HET1A cells [3]": {"test_system": "HET1A cells", "assay": "Genomic instability: new copy number events on PMDA arrays", "details": "daily treatment 14 days; DCA 100 μM; CBG/Phytol 1:5; baseline Day 0 genome", "procedure": "The impact of phytocannabinoids on acquisition of new genomic changes over time in human esophageal cells was assessed using Axiom™ Precision Medicine Diversity Arrays (PMDA; Affymetrix). HET1a cells, plated in T-150 flasks at a seeding density of 2,500 cells per cm^2, were divided into 4 experimental groups (n=2 each): (i) DMSO-treated controls, (ii) treated with 100 μM of DCA alone, (iii) treated with CBG/Phytol admixture alone, and (iv) treated with 100 μM of DCA and CBG/Phytol admixture. DCA and/or CBG/Phytol were freshly prepared daily by dissolving in DMSO and then added to the media. These cells were cultured for 14 consecutive days. […]\nBased on the examples above, it was hypothesized that increased stress-induced apoptosis along with reduced DNA damage and mitochondrial disruption may be concordant to reduced genomic instability. […] DNA from cultured and Day 0 cells was extracted and analyzed using PMDA arrays (Affymetrix). Genomic instability in cultured cells was assessed by identifying new copy number events (both deletions and amplifications), using genome of “Day 0” cells as baseline. […] Compared to control cells, DCA induced a marked (>6-fold) increase in genomic instability, as assessed from the acquisition of new copy number events over a period of […]. […]"}, "[4]": {"test_system": "CP-A Barrett's esophagus cells", "assay": "ROS by CM-DCFDA fluorescence after low pH and bile acid cocktail (GER)", "details": "FIG. 6F", "procedure": "The cannabinoids referenced in the following examples were purchased from Cayman Chemical and brought up to a stock concentration of 100 mM in DMSO. Terpenes were purchased from Sigma Aldrich. Bile acid cocktail consisted of an equimolar mixture of glycocholate, taurocholate, glycodeoxycholate, glycochenodeoxycholate, and deoxycholate at a final concentration of 0.2 mM. This cocktail reflects the mixture of bile acids to which the distal esophagus is ordinarily exposed during gastroesophageal reflux\nCombinations of cannabinoids/terpenes were tested to determine whether they protected cells in the esophagus following acute exposure to a low pH environment (pH4.5) combined with a bile acid cocktail comprised of multiple physiologically-relevant secondary bile acids, which mimics the caustic environment during gastroesophageal reflux (GER). […] The cells were either immediately analyzed for ROS via fluorescent detection of CM-DCFDA or recovered for 24 hours and analyzed for DNA damage, via γ-H2AX. […] Furthermore, the combination of CBG and β-caryophyllene was tested in the residual cells and harvested 24 h post-treatment for assessment of DNA damage to obtain the γ-H2AX fluorescence plots in FIG. 6E. […]"}},
  "data": [
    {"smiles": "CCCCCc1cc(O)c(C/C=C(\\C)CCC=C(C)C)c(O)c1", "note": "[CBG, cannabigerol]", "values": [
      {"measurement": "effect on DCA-induced mitochondrial membrane depolarization", "setting": "HET1a", "result": "not reproduced by either compound alone in a statistically significant manner"}
    ]},
    {"smiles": "C[C@H](CCC(=O)O)[C@H]1CC[C@H]2[C@@H]3CC[C@@H]4C[C@H](O)CC[C@]4(C)[C@H]3C[C@H](O)[C@]12C", "note": "[DCA, deoxycholic acid]", "values": [
      {"measurement": "dose sufficient to induce membrane polarization", "setting": "HET1a; acute exposure to DCA, JC-1 red/green", "result": 100, "unit": "µM"},
      {"measurement": "dosing that induced severe mitochondrial membrane depolarization and cellular apoptosis", "setting": "HET1a; human", "result": "above 300 μM"},
      {"measurement": "proportion of DNA damage (% ATM and H2AX positive cells) vs. an untreated group", "setting": "HET1A cells [1]", "result": "> 5", "unit": "%"},
      {"measurement": "number of cells after DCA alone", "setting": "HET1A cells [2]", "result": "significant reduction in number of cells by 48 hours"},
      {"measurement": "increase in genomic instability (new copy number events) compared to control cells", "setting": "HET1A cells [3]", "result": "> 6", "unit": "fold"}
    ]},
    {"smiles": "C[C@H](CCC(=O)O)[C@H]1CC[C@H]2[C@@H]3[C@@H](O)C[C@@H]4C[C@H](O)CC[C@]4(C)[C@H]3CC[C@]12C", "note": "[UDCA, ursodeoxycholic acid]", "values": [
      {"measurement": "mitigation of the oxidative insult of GER (CM-DCFDA fluorescence), comparison with catalase and UDCA", "setting": "[4]", "result": "protective effect"}
    ]},
    {"smiles": "C/C(=C\\CO)CCC[C@H](C)CCC[C@H](C)CCCC(C)C", "note": "[phytol]", "values": [
      {"measurement": "effect on DCA-induced mitochondrial membrane depolarization", "setting": "HET1a", "result": "not reproduced by either compound alone in a statistically significant manner"}
    ]}
  ]
}
